For orientation: Ki means a dissociation constant, usually derived from enzyme kinetics or from competition with a known ligand. As a reminder, the Km is the concentration of substrate that gives half-maximal velocity.

For series [1], the target named is T1, Adenosylhomocysteinase (Rattus norvegicus) (UniProt P10760).
T1 sequence (whole entry): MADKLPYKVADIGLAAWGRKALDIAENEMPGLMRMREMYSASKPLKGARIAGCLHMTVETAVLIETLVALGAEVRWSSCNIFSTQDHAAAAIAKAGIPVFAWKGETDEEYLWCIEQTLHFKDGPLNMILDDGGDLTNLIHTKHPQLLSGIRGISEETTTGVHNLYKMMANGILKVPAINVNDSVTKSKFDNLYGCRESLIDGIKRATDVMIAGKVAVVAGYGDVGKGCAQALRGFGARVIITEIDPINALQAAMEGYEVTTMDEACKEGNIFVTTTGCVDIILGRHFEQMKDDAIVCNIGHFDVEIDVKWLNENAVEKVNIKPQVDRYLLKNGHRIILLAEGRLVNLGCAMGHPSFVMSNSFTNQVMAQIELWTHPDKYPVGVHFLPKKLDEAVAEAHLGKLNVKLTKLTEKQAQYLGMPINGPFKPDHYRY
Kind of series: (§1) Inhibition constant for the compound was determined against the recombinant rat liver AdoHyc hydrolase (MV1304/pUCSAH).

The target in the next series is T2, Adenosylhomocysteinase (Rattus norvegicus, UniProt P10760).
T2 sequence (P10760 whole entry): T1 sequence (whole entry)
The description is as §1.

Substrate in series [2]: Nc1ncnc2c1ncn2[C@@H]1O[C@H](CSCC[C@H](N)C(=O)O)[C@@H](O)[C@H]1O
Description: Km for the compound was determined against the recombinant rat liver AdoHyc hydrolase (MV1304/pUCSAH)

In the case of `Nc1ncnc2c1ncn2C1OC(CSCC[C@H](N)C(=O)O)[C@@H](O)[C@H]1O` (stereo in doubt; form 2) [listing 1 of 2 here], the K inact in series [1] amounted to 0.0049 min⁻¹. On to `Nc1ncnc2c1ncn2C1OC(CSCC[C@H](N)C(=O)O)[C@@H](O)[C@H]1O` (stereo in doubt; form 2) [listing 2 of 2 here], for which the Ki on Adenosylhomocysteinase was 345 µM. On to `Nc1ncnc2c1ncn2C1OC(CSCC[C@H](N)C(=O)O)[C@@H](O)[C@H]1O` (stereo in doubt; form 1) [listing 1 of 2 here], for which the Ki on Adenosylhomocysteinase stood at 1090 µM. As to `CC(C)CSC[C@H]1OC(n2cnc3c(N)ncnc32)[C@H](O)[C@@H]1O` (some centres not stated), the Ki on Adenosylhomocysteinase stood at 105 µM. The K inact in series [1] was 0.0488 min⁻¹. Take `Nc1ncnc2c1ncn2C1OC(CSCC[C@H](N)C(=O)O)[C@@H](O)[C@H]1O` (stereo in doubt; form 1) [listing 2 of 2 here]: the K inact in series [1] amounted to 0.0145 min⁻¹.

B1: Adenosylhomocysteinase (Rattus norvegicus), P10760 (protein)
chain: T1 sequence (whole entry)
Turning to B1, the Km in series [2] amounted to 9.7 µM.

(Values after ChEMBL document CHEMBL1135046, “Synthesis of an alpha-aminophosphonate nucleoside as an inhibitor of S-adenosyl-L-homocysteine hydrolase” (Bioorg Med Chem Lett, 2002).)
